From DBAASP
Converted amounts (≈) assume the structure as drawn. Values belong to the compound of their own block, whether it stands above or below them.

Key:
Test in all cases: ≥ marks a high value that may be exact or a test limit, other limits are often not marked, values filed in µg/mL are converted to µM
[1] = system: Pseudomonas aeruginosa LCCE
[2] = system: Pseudomonas aeruginosa LCCI
[3] = system: Staphylococcus epidermidis ATCC 12228
[4] = system: Pseudomonas aeruginosa LC
[5] = system: Pseudomonas aeruginosa LCGE
[6] = system: Pseudomonas aeruginosa ATCC 10419
[7] = system: Escherichia coli ATCC 25922
[8] = system: Pseudomonas aeruginosa ATCC 21625
[9] = system: Staphylococcus aureus ATCC 29213
[10] = system: Pseudomonas aeruginosa ATCC 21630
[11] = system: Salmonella enterica subsp. enterica serovar Typhimurium C77-31
[12] = system: Escherichia coli ATCC 43827
[13] = system: Staphylococcus aureus ATCC 29313
[14] = system: Xanthomonas axonopodis pv. glycines ISBF 327
[15] = system: Acinetobacter baumannii ATCC BAA-1605
[16] = system: Staphylococcus aureus ATCC 33591
[17] = system: Pseudomonas aeruginosa ATCC 27853
[18] = system: Pseudomonas aeruginosa ATCC 9027
[19] = system: Aspergillus fumigatus
[20] = system: Staphylococcus aureus
[21] = system: Mannheimia haemolytica Serovar 2
[22] = system: Salmonella enterica subsp. arizonae
[23] = system: Staphylococcus aureus ATCC 43300
[24] = system: Mannheimia haemolytica Serovar 6
[25] = system: Pasteurella multocida
[26] = system: Enterococcus faecalis ATCC 29212
[27] = system: Klebsiella pneumoniae ATCC 13883
[28] = system: Pseudomonas aeruginosa
[29] = system: Fusobacterium nucleatum ATCC 25586
[30] = system: Streptococcus mutans Ingbritt
[31] = system: Klebsiella pneumoniae
[32] = system: Corynebacterium pseudotuberculosis ATCC 19410
[33] = system: Mannheimia haemolytica Serovar 1
[34] = system: Klebsiella aerogenes ATCC 13048
[35] = system: Bibersteinia trehalosi
[36] = system: Acinetobacter baumannii ATCC 19606
[37] = system: Pseudomonas aeruginosa PA14
[38] = system: Staphylococcus aureus ATCC 25923
[39] = system: Escherichia coli BL21
[40] = system: Enterobacter cloacae beta-12
[41] = system: Staphylococcus aureus K35
[42] = system: Staphylococcus aureus K52
[43] = system: Enterococcus faecium
[44] = system: Trichophyton rubrum ATCC 28188
[45] = system: Aspergillus flavus ATCC 9643
[46] = system: Candida albicans ATCC 10231
[47] = system: Saccharomyces cerevisiae ATCC 9763
[48] = system: Aspergillus niger ATCC 6275
[49] = system: Salmonella typhimurium CMCC 50013
[50] = system: Cryptococcus neoformans ATCC 32045
[51] = system: Listeria monocytogenes CMCC 54002
[52] = system: Shigella dysenteriae CMCC 51302
[53] = system: Streptococcus pyogenes ATCC 12344

SMILES: CC[C@H](C)[C@H](NC(=O)[C@H](CCCCN)NC(=O)[C@H](CC(N)=O)NC(=O)[C@@H](NC(=O)[C@@H](NC(=O)[C@H](CCCCN)NC(=O)[C@@H](NC(=O)[C@H](C)NC(=O)[C@@H](NC(=O)[C@H](Cc1cnc[nH]1)NC(=O)CNC(=O)[C@H](C)NC(=O)[C@H](CC(C)C)NC(=O)[C@H](CC(=O)O)NC(=O)[C@H](CCCCN)NC(=O)[C@H](C)NC(=O)[C@H](C)NC(=O)CNC(=O)[C@H](CCCCN)NC(=O)[C@H](CC(C)C)NC(=O)[C@@H](NC(=O)[C@H](CC(=O)O)NC(=O)[C@H](CC(C)C)NC(=O)[C@@H](NC(=O)CN)C(C)C)[C@@H](C)CC)C(C)C)[C@@H](C)O)C(C)C)[C@@H](C)CC)C(N)=O [GVLDILKGAAKDLAGHVATKVINKI]
MIC [12]: ≥ 201 µM | MIC [13]: ≥ 50 µM | MIC [14]: 25 µM (≈ 63.6 µg/mL) | MIC [15]: ≥ 50.3 µM | MIC [16]: ≥ 201 µM | MIC [17]: 100 µM (≈ 254 µg/mL) | MIC [18]: > 201 µM

SMILES: CC[C@H](C)[C@H](NC(=O)CNC(=O)[C@H](CO)NC(=O)[C@H](CC(C)C)NC(=O)[C@@H](NC(=O)[C@H](CCCCN)NC(=O)CNC(=O)[C@@H](NC(=O)[C@H](CC(C)C)NC(=O)[C@@H]1CCCN1C(=O)[C@H](CC(C)C)NC(=O)[C@@H](N)Cc1ccccc1)[C@@H](C)CC)C(C)C)C(=O)N[C@@H](CC(C)C)C(N)=O [FLPLIGKVLSGIL]
MIC [37]: ≥ 128 µM | MIC [38]: 5.2 µM (≈ 7.12 µg/mL) | MIC [39]: ≥ 64 µM | MIC [40]: ≥ 128 µM | MIC [41]: 4.4 µM (≈ 6.02 µg/mL) | MIC [26]: 20.9 µM (≈ 28.6 µg/mL) | MIC [3]: ≥ 128 µM | MIC [28]: > 64 µM | MIC [42]: 4.4 µM (≈ 6.02 µg/mL) | MIC [43]: 17.5 µM (≈ 24 µg/mL)

SMILES: CC(C)C[C@H](NC(=O)CN)C(=O)N[C@@H](C)C(=O)N[C@@H](CCCN=C(N)N)C(=O)N[C@@H](C)C(=O)N[C@@H](CC(C)C)C(=O)N[C@H](C(=O)N[C@@H](CCCN=C(N)N)C(=O)N[C@@H](CC(C)C)C(=O)N[C@@H](CC(C)C)C(=O)N[C@@H](CCCN=C(N)N)C(=O)N[C@@H](CCC(N)=O)C(=O)N[C@@H](CC(C)C)C(=O)N[C@H](C(=O)N[C@@H](CCCN=C(N)N)C(=O)N[C@@H](CCC(N)=O)C(=O)N[C@@H](CC(C)C)C(=O)N[C@H](C(=O)N[C@@H](CCCN=C(N)N)C(=O)N[C@@H](C)C(=O)O)[C@@H](C)O)[C@@H](C)O)[C@@H](C)O [GLARALTRLLRQLTRQLTRA]
MIC [44]: ≥ 32 µM | MIC [45]: 8 µM (≈ 18.5 µg/mL) | MIC [46]: 8 µM (≈ 18.5 µg/mL) | MIC [47]: 16 µM (≈ 36.9 µg/mL) | MIC [48]: ≥ 32 µM | MIC [49]: 2 µM (≈ 4.62 µg/mL) | MIC [50]: 16 µM (≈ 36.9 µg/mL) | MIC [51]: 4 µM (≈ 9.23 µg/mL) | MIC [52]: 4 µM (≈ 9.23 µg/mL) | MIC [53]: 4 µM (≈ 9.23 µg/mL)

More lines, main results first:

MIC [1]: 4 µM (≈ 9.07 µg/mL) | MIC [2]: 2 µM (≈ 4.54 µg/mL) | MIC [3]: 64 µM (≈ 145 µg/mL) | MIC [4]: 1 µM (≈ 2.27 µg/mL) | MIC [5]: 4 µM (≈ 9.07 µg/mL) | MIC [6]: 4 µM (≈ 9.07 µg/mL) | MIC [7]: 64 µM (≈ 145 µg/mL) | MIC [8]: 4 µM (≈ 9.07 µg/mL) | MIC [9]: 128 µM (≈ 290 µg/mL) | MIC [10]: 4 µM (≈ 9.07 µg/mL) | MIC [11]: ≥ 128 µM
SMILES: CC[C@H](C)[C@H](NC(=O)[C@H](CCCCN)NC(=O)[C@H](CCCCN)NC(=O)[C@H](CC(C)C)NC(=O)[C@H](CCCN=C(N)N)NC(=O)[C@H](CCCCN)NC(=O)[C@H](CCCN=C(N)N)NC(=O)[C@H](Cc1c[nH]c2ccccc12)NC(=O)[C@H](CCCCN)NC(=O)[C@H](CCCCN)NC(=O)[C@H](CCCN=C(N)N)NC(=O)[C@H](CC(C)C)NC(=O)[C@H](CCCN=C(N)N)NC(=O)[C@H](CCCN=C(N)N)NC(=O)[C@H](Cc1ccccc1)NC(=O)[C@@H](N)CCCN=C(N)N)C(N)=O [RFRRLRKKWRKRLKKI]

MIC [19]: 4.42 µM (≈ 10 µg/mL) | MIC [20]: 6.63 µM (≈ 15 µg/mL) | MIC [22]: 2.96 µM (≈ 6.7 µg/mL) | MIC [23]: > 250 µM | MIC [25]: 0.265 µM (≈ 0.6 µg/mL) | MIC [26]: 78.8 µM (≈ 178 µg/mL) | MIC [27]: 7.7 µM (≈ 17.4 µg/mL) | MIC [28]: 0.625 µM (≈ 1.41 µg/mL) | MIC [29]: 4.2 µM (≈ 9.5 µg/mL) | MIC [30]: 16.5 µM (≈ 37.3 µg/mL) | MIC [31]: 0.353 µM (≈ 0.8 µg/mL) | MIC [32]: 8.84 µM (≈ 20 µg/mL) | MIC [34]: ≥ 45.9 µM | MIC [7]: 9.6 µM (≈ 21.7 µg/mL) | MIC [9]: 138 µM (≈ 313 µg/mL) | MIC [35]: 1.02 µM (≈ 2.3 µg/mL) | MIC [36]: 2.6 µM (≈ 5.88 µg/mL)
SMILES: CC[C@H](C)[C@H](NC(=O)[C@H](CCCN=C(N)N)NC(=O)[C@H](CCCN=C(N)N)NC(=O)[C@H](CC(C)C)NC(=O)[C@H](CC(N)=O)NC(=O)[C@@H](N)CCCCN)C(=O)N[C@H](C(=O)N[C@@H](CCCN=C(N)N)C(=O)N[C@@H](CCCCN)C(=O)N[C@H](C(=O)N[C@H](C(=O)N[C@@H](Cc1cnc[nH]1)C(=O)N[C@H](C(=O)N[C@H](C(=O)N[C@@H](CCCCN)C(=O)N[C@@H](CCCCN)C(=O)N[C@@H](Cc1ccc(O)cc1)C(=O)NCC(=O)O)[C@@H](C)CC)[C@@H](C)CC)[C@@H](C)CC)[C@@H](C)CC)[C@@H](C)CC [KNLRRIIRKIIHIIKKYG]
MIC [21]: 0.265 µM (≈ 0.6 µg/mL) | MIC [24]: 0.0884 µM (≈ 0.2 µg/mL) | MIC [33]: 0.663 µM (≈ 1.5 µg/mL)
